Test results from US8178506B2, “Oligomeric compounds and compositions for use in modulation of small non-coding RNAs” (Regulus Therapeutics Inc., priority 2003, dated 2012).
In the oligonucleotide strings, read from the 5' end, every base follows the letter of its sugar. An asterisk marks phosphorothioate; unmarked linkages are phosphodiester. Other units and linkages are bracketed, terminal groups are in braces. A string of capitals states the bases alone. e = 2'-O-(2-methoxyethyl) (MOE); [5mC] = 5-methylcytosine

Legend:
[1] = tested on: mir-143 binding sites; assay: pGL3-mir-143 sensor luciferase assay in HeLa cells; format: cell-based, human; conditions: for Relative luciferase activity / luciferase expression (% lucif. only control): HeLa cells; for Relative luciferase activity: pGL3-mir-143 sensor with pCR3-pri-mir-143 (430); for luciferase expression (% lucif. only control): pGL3-mir-143 sensor
Excerpt: In one embodiment, an expression system based on the pGL3-Control (Promega Corp., Madison Wis.) vector containing a CMV promoter controlling expression of a luciferase reporter sequence was used in transient transfections of HeLa cells with plasmids expressing miRNA or pri-miRNA mimics. To assess the ability of miRNA mimics to bind and regulate the expression of the luciferase reporter gene, two reporter plasmids were constructed: 1) a synthetic DNA fragment comprising two sites perfectly complementary to mir-143 were inserted into the pGL3-Control luciferase reporter vector, to create the pGL3-mir-143 sensor plasmid, and 2) a DNA fragment comprising the 3′-UTR of the LIM domain only 4 (LMO4) gene (predicted to be regulated by mir-143) was inserted into pGL3-Control to create pGL3-LMO4; this fragment was PCR-amplified using a primer beginning at position 1261 of the LMO4 sequence (GenBank Accession NM_006769.2, incorporated herein as SEQ ID: 809) and the downstream primer hybridizing to the poly-A tail. In each of these plasmids, the target site was placed downstream of the luciferase coding sequence and upstream of the polyadenylation signal in the 3′-UTR of the luciferase reporter vector. The unmodified pGL3-Control luciferase reporter vector was used as a control.
HeLa cells were routinely cultured and passaged as described, and on the day before transfection with expression or reporter plasmids, the HeLa cells were seeded onto 24-well plates 50,000 cells/well. Cells were transfected according to standard published procedures with various combinations of plasmids using 2 μg Lipofectamine™ 2000 Reagent (Invitrogen) per μg of plasmid DNA, or, when transfecting oligomeric compounds, 1.25 μg of Lipofectamine™ 2000 Reagent per 100 nM oligonucleotide or double-stranded RNA. The luciferase signal in each well was normalized to the Renilla luciferase (RL) activity produced from a co-transfected plasmid, pRL-CMV, which was transfected at 0.5 μg per well. Cells were treated at various dosages (4 nM, 20 nM, and 100 nM) with the following oligomeric compound mimics: 1) “ds-mir-143,” 2) “ds-Control,” 3) “pCR3-pri-mir-143,” or 4) “pri-mir-control,” as described supra. In accordance with methods described in Example 12, supra, a luciferase assay was performed 48-hours after transfection. Briefly, cells were lysed in passive lysis buffer (PLB; Promega), and 20 ul of the lysate was then assayed for RL activity using a Dual Luciferase Assay kit (Promega) according to the manufacturer's protocol. The results below are an average of three trials and are presented as percent pGL3-Control luciferase expression normalized to pRL-CMV expression (RL).
In another embodiment, HeLa cells were transfected with 0.03 μg pGL3-mir-143 sensor plasmid and 0.01 μg pRL-CMV plasmid, and, in addition, (except those samples described below as “without mir-143 pri-miRNA,”) were also transfected with 0.01 μg of an expression plasmid designed to express a mir-143 pri-miRNA mimic comprising a larger 430-nt fragment of the mir-143 primary miRNA transcript, referred to as “pCR3-pri-mir-143 (430)” ([…]; SEQ ID NO: 871). […] To further evaluate the ability of the mir-143 pri-miRNA mimic to inhibit luciferase activity from the sensor plasmid, and to assess the ability of oligomeric compounds to interfere with the inhibition of pGL3-mir-143 sensor luciferase expression by the mir-143 pri-miRNA mimic, pGL3-mir-143 sensor-expressing HeLa cells treated with pCR3-pri-mir-143 (430) were additionally treated with varying concentrations (0-, 6.7- or 20 nM) of the following oligomeric compounds: 1) ISIS Number 327901 (SEQ ID NO: 319), a uniform 2′-MOE oligomeric compound targeting mir-143; 2) ISIS Number 342673 (SEQ ID NO: 758), a uniform 2′-MOE scrambled control; or 3) ISIS Number 327924 (SEQ ID NO: 342) targeting an unrelated miRNA (mir-129-2). […]

[2] = tested on: mir-143 miRNA binding site; assay: GFP mir-143 sensor reporter in T-REx-HeLa cells; format: cell-based, human; conditions: T-REx-HeLa, 24 hours post-transfection
Excerpt: Reporter systems have been developed herein to assess the ability of miRNA mimics to provoke a gene silencing response and to assess whether antisense oligomeric compounds targeting miRNAs can inhibit gene silencing activity. The T-REx™-HeLa cell line (Invitrogen Corp., Carlsbad, Calif.) was used for either stable or transient transfections with plasmids constitutively expressing miRNAs, pre-miRNAs, pri-miRNAs or mimics thereof, and, in some cases, antisense oligomeric compounds targeting the expressed miRNA were also transfected into the cells. It is understood that other mammalian cells lines can also be used in this reporter system. T-REx™-HeLa cells were routinely cultured in DMEM, high glucose (Invitrogen Corporation, Carlsbad, Calif.), supplemented with 10% fetal bovine serum (Invitrogen Corporation). […] Cells were harvested when they reached 90% confluence, and on the day before transfection with expression or reporter plasmids (described in detail below), the T-REx™-HeLa cells were seeded onto 24-well plates at 50,000 cells/well. The following day, cells were transfected according to standard published procedures with various combinations of plasmids using 2 μg Lipofectamine™ 2000 Reagent (Invitrogen) per μg of plasmid DNA. When transfecting oligomeric compounds, 1-3 μg of Lipofectamine™ 2000 Reagent was used per 100 nM oligomeric compound.
Plasmids used are as follows: The pcDNA3.1©/NT-GFP (Invitrogen) plasmid, containing a CMV promoter controlling expression of a GFP reporter sequence at the N-terminus of the transcription start site was used as a control plasmid. The pcDNA3.1©/NT-GFP-mir-143 sensor plasmid contains (in addition to the elements above) three 22-nucleotide sites encoding the mir-143 miRNA binding site, downstream of the GFP coding sequence and upstream of the polyadenylation signal. The pCR3-pri-mir-143 plasmid (“pri-mir-143”) is a CMV promoter-driven constitutive expression plasmid which expresses the 110-nucleotide mir-143 pri-miRNA sequence (SEQ ID NO: 38), to act as a mir-143 pri-miRNA mimic. The pCR3-pri-mir control (“pri-mir-control”) is a CMV promotor-driven constitutive expression plasmid which is designed to express a similar 110-nucleotide pri-miRNA sequence ([…] CAGC; SEQ ID NO: 862) wherein the mature mir-143 sequence has been replaced with an unrelated sequence and the predicted complementary strand opposite it within the pri-miRNA structure is replaced with a nearly complementary sequence in order to preserve the stem loop as well as the bulge structure of the natural mir-143 pri-miRNA. Additionally, in order to test the effect of an oligomeric compound targeting a miRNA, the T-REx™-HeLa cells were also transfected with the uniform 2′-MOE phosphorothioate (PS) antisense oligomeric compound ISIS Number 327901 (SEQ ID NO: 319), targeted to mir-143 previously described.
Twenty-four hours post-transfection, cells were trypsinized and GFP fluorescence was analyzed by flow cytometry.

Substance | Relative luciferase activity ([1]; 6.7 nM) | Relative luciferase activity ([1]; 20 nM) | expression of GFP from the pcDNA3.1/NT-GFP-mir-143 sensor plasmid [2] | luciferase activity from the pGL3-mir-143 sensor plasmid ([1]; HeLa, 4 nM, 20 nM and 100 nM, 48 hours) | luciferase expression (% lucif. only control) ([1]; 4 nM, 48 hours) | luciferase expression (% lucif. only control) ([1]; 20 nM, 48 hours) | luciferase expression (% lucif. only control) ([1]; 100 nM, 48 hours)
327924 (antisense eG*e[5mC]*eA*eA*eG*e[5mC]*e[5mC]*e[5mC]*eA*eG*eA*e[5mC]*e[5mC]*eG*e[5mC]*eA*eA*eA*eA*eA*eG) [compound 327924] | 0.8 | 1.2 |  |  |  |  | 
ds-mir-143: double-stranded RNA of ISIS 342199 hybridized to its perfect complement ISIS 342200 (sense UGAGAUGAAGCACUGUAGCUCA; antisense UGAGCUACAGUGCUUCAUCUCA; RNA, backbone not given here) |  |  | inhibited expression of GFP from the sensor plasmid in a dose dependent manner | inhibited luciferase activity from the pGL3-mir-143 sensor plasmid in a dose-dependent manner | 14.5 % lucif. only control | 8.0 % lucif. only control | 7.1 % lucif. only control
